Measured values reported in paper PMC8465942, “Cyano- and Ketone-Containing Selenoesters as Multi-Target Compounds against Resistant Cancers” (Cancers, 2021).
Read-outs that look alike come from different tables or passages of the source. Marks after values point to notes of the source that are not given here.

Legend:
[1] = test system: Colo 205 human colonic adenocarcinoma cell line; assay: Cytotoxicity (MTT) on sensitive Colo 205 cells; format: cell-based; settings: for IC50: Homo sapiens, read-out: Colo 205 (IC50 µM) Mean; for SI MRC-5/Colo 205: ratio IC50 non-tumour cells / IC50 cancer cells
Source text: (§1) Three cell lines have been used in this study: the doxorubicin-sensitive Colo 205 (CCL-222, ATCC, Manassas, VA, USA) human colonic adenocarcinoma cell line; the multidrug resistant Colo 320/MDR-LRP expressing P-gp (MDR1)-LRP (CCL-220.1, ATCC) human colonic adenocarcinoma cell line; and the MRC-5 human embryonal lung fibroblast cell line (CCL-171, ATCC). The colon adenocarcinoma cell lines were purchased from LGC Promochem (Teddington, UK), and the MRC-5 cell line was purchased from Sigma-Aldrich (Merck KGaA, Darmstadt, Germany). Their culture conditions are as follows: Colo 205 (CCL-222, ATCC) and Colo 320/MDR-LRP expressing P-gp (MDR1)-LRP (CCL-220.1, ATCC) human colon adenocarcinoma cell lines were cultured in RPMI 1640 medium, supplemented with 10% FBS, 2 mM L-glutamine, 1 mM Na-pyruvate, and […]. The cell lines were incubated at 37 °C, 5% CO2, and 95% air atmosphere. The semi-adherent human colon cancer cells were detached with a Trypsin-Versene (EDTA) solution for 5 min at 37 °C. MRC-5 human embryonal lung fibroblast cells were cultured in EMEM containing 4.5 g/L of glucose and supplemented with a non-essential amino acid mixture, a selection of vitamins, and 10% FBS. The cell lines were incubated at 37 °C, 5% CO2, and 95% air atmosphere.
(§2) The effects of increasing concentrations of the compounds on cell growth were tested in 96-well flat-bottomed microtiter plates. Moreover, 10^4 of human colonic adenocarcinoma cells in 100 μL of the medium (RPMI-1640) were added to each well, except for the medium control wells. The adherent human embryonic lung fibroblast cell line was seeded in the EMEM medium for 4 h before the assay. The two-fold serial dilutions of the compounds were made in a separate plate (0.19–100 μM), and then transferred to the plates containing the adherent corresponding cell line. Culture plates were incubated at 37 °C for 24 h. At the end of the incubation period, 20 μL of MTT (thiazolyl blue tetrazolium bromide) solution (from a 5 mg/mL stock solution) were added to each well. After incubation at 37 °C for 4 h, 100 μL of sodium dodecyl sulfate (SDS) solution (10% SDS in 0.01 M HCl) was added to each well, and the plates were further incubated at 37 °C overnight. Cell growth was determined by measuring the optical density (OD) at 540 nm (ref. 630 nm) with a Multiscan EX ELISA reader (Thermo Labsystems, Cheshire, WA, USA). Inhibition of cell growth was expressed as IC50 values, defined as the inhibitory dose that reduces the growth of the cells exposed to the tested compounds by 50%. IC50 values and the SD of triplicate experiments were calculated by using GraphPad Prism software version 5.00 for Windows, with a non-linear regression curve fit (GraphPad Software, San Diego, CA, USA; www.graphpad.com, accessed on 12 July 2021). Doxorubicin (from a 2 mg/mL stock solution, Teva Pharmaceuticals) was used as a positive control.
(§3) The selectivity indexes (SI) were calculated as the ratio of the IC50 value in the non-tumour cells and the IC50 in the cancer cell lines. The compound’s activity towards cancer cells is considered as strongly selective if the selectivity index (SI) value is higher than 6, moderately selective if 3 < SI < 6, slightly selective if 1 < SI < 3, and non-selective if SI is lower than 1 [16].

[2] = test system: Colo 320/MDR-LRP human colonic adenocarcinoma cell line; assay: Cytotoxicity (MTT) on resistant Colo 320 cells; format: cell-based; settings: for IC50: Homo sapiens, read-out: Colo 320 (IC50 µM) Mean; for SI MRC-5/Colo 320: ratio IC50 non-tumour cells / IC50 cancer cells
Source text: as §1, §2, §3

[3] = Cytotoxicity (MTT) on normal MRC-5 fibroblasts; format: cell-based; settings: human
Source text: as §1, §2

[4] = test system: HepG2 (hepatocellular carcinoma); assay: Cytotoxicity on HepG2 cells; format: cell-based; settings: Homo sapiens
Description: (§4) The activity of selenoesters was tested on several cancer cell lines, including HepG2 (hepatocellular carcinoma, CCL-23TM, ATCC); HeLa (cervical adenocarcinoma, CCL-2TM, ATCC); B16 (skin melanoma, CCL-6322TM, ATCC); and a non-cancerous cell line, HDF (human dermal fibroblasts, Sigma-Aldrich). HepG2, HeLa, B16, and HDF cell lines were cultivated in EMEM medium supplemented with 10% FBS, 2 mM L-glutamine, and 1% penicillin-streptomycin mixture. The HaCaT cell line was cultivated in DMEM medium supplemented with 10% FBS and 1% penicillin-streptomycin mixture. All of the cells were cultivated in a CO2 incubator (5% CO2, 37 °C). Twice per week, the cell lines were passaged according to a standardized protocol with a trypsin-EDTA solution.
as §3

[5] = test system: HeLa (cervical adenocarcinoma); assay: Cytotoxicity on HeLa cells; format: cell-based; settings: Homo sapiens
Description: as §4, §3

B16 (skin melanoma) = assay: Cytotoxicity on B16 cells; format: cell-based, murine; settings: Mus musculus
Description: as §4, §3

HaCaT cell line = assay: Toxicity on HaCaT cells (IC10 used as dose); format: cell-based; settings: Homo sapiens
Description: as §4, with “solution. […]” for “solution.”
Wound healing activity of selenoesters was evaluated as the ability of the cells to migrate and close the gap created on the monolayer of human keratinocytes (HaCaT cell line). The tested substances were applied in the highest possible non-toxic concentration (IC10, concentration inhibiting 10% of the population). In general, ketone-selenoesters were more toxic (except K4 and K1) than cyano-selenoesters (except N4); therefore, they were applied at lower doses (0.17–0.30 µM) when compared to cyanoselenoesters (0.36–0.64 µM). Compounds K1, K4, and N4 were applied at a concentration of 0.30, 0.46, and 0.20 µM, respectively. As could be seen in Table 8, all ketone-selenoesters stimulated wound healing more effectively in comparison to both untreated control (p < 0.0000005) and allantoin (p < 0.00005). […] Only samples N1, N2, N4, and N7 closed effectively the damaged wound in 24 h, with the gap closure around 70%.

[6] = test system: HeLa (cervical adenocarcinoma); assay: Cytotoxicity on HeLa cells; format: cell-based, human; settings: ratio IC50 non-tumour cells / IC50 cancer cells
[7] = concentration inhibiting 10% of the population, highest non-toxic concentration, read-out: Dose IC10
[8] = 24 h, MTT, read-out: MRC-5 (IC50 µM) Mean

Row | SMILES | IC50 ([1]; COLO 205, 24 h, MTT) | SI MRC-5/Colo 205 [1] | IC50 ([2]; COLO 320, 24 h, MTT) | SI MRC-5/Colo 320 [2] | IC50 at 24 h [3] | IC50 [4] | IC50 [5] | IC50 (B16 (skin melanoma)) | IC10 (HaCaT cell line; [7]) | SI MRC-5/HeLa [6] | IC50 ([1]; COLO 205, 24 h) | IC50 ([2]; COLO 320, 24 h) | IC50 at 24 h [3, 8] | IC10 (HaCaT cell line; read-out: Dose IC10 (µM))
1 | CC(=O)C[Se]C(=O)c1cccs1 [K1, Se-(2-Oxopropyl) Thiophene-2-carboselenoate] | 1.53 µM | 1.46 | 1.47 µM | 1.52 | 2.24 µM | 2.3 µM | 2.5 µM | 1.4 µM | 0.3 µM | 1.5 |  |  |  | 
2 | CC(=O)C[Se]C(=O)c1ccccc1F [K2, Se-(2-Oxopropyl) 2-Fluorobenzoselenoate] | 3.35 µM |  | 2.38 µM | 1.06 | 2.53 µM | 2.2 µM | 2.5 µM | 1.2 µM | 0.2 µM | 1.0 |  |  |  | 
3 | CC(=O)C[Se]C(=O)c1ccc(Br)cc1 [K3, Se-(2-Oxopropyl) 4-Bromobenzoselenoate] |  | 1.25 |  | 1.33 |  | 3.1 µM | 2.1 µM | 1.7 µM |  | 1.1 | 2.28 µM | 2.15 µM | 2.86 µM | 0.24 µM
4 | CC(=O)C[Se]C(=O)c1ccccc1C(F)(F)F [K4, Se-(2-Oxopropyl) 2-(Trifluoromethyl)benzoselenoate] |  |  |  | 2.45 |  | 4.3 µM | 1.9 µM | 2 µM |  | 1.5 | 1.05 µM | 1.48 µM | 3.63 µM | 0.46 µM
5 | CC(=O)C[Se]C(=O)c1cccc(C(F)(F)F)c1 [K5, Se-(2-Oxopropyl) 3-(Trifluoromethyl)benzoselenoate] | 2.14 µM | 1.45 | 2.17 µM | 1.43 | 3.11 µM | 2.4 µM | 2.5 µM | 1.1 µM | 0.25 µM | 1.2 |  |  |  | 
6 | CC(=O)C[Se]C(=O)c1ccc(F)c(Cl)c1 [K6, Se-(2-Oxopropyl) 3-Chloro-4-fluorobenzoselenoate] | 2.1 µM | 1.73 | 2.1 µM | 1.72 | 3.62 µM | 2.9 µM | 2.3 µM | 1.3 µM | 0.22 µM | 1.6 |  |  |  | 
7 | CC(=O)C[Se]C(=O)c1ccc(C(C)(C)C)cc1 [K7, Se-(2-Oxopropyl) 4-(Tert-butyl)benzoselenoate] |  | 1.38 |  | 1.45 |  | 3.7 µM | 2.7 µM | 1.4 µM |  | 1.4 | 2.69 µM | 2.57 µM | 3.72 µM | 0.24 µM
8 | CC(=O)C[Se]C(=O)c1cc(F)c(F)cc1F [K8, Se-(2-Oxopropyl) 2,4,5-Trifluorobenzoselenoate] | 2.24 µM | 1.12 | 2.37 µM | 1.05 | 2.5 µM | 4 µM | 2 µM | 1.4 µM | 0.17 µM | 1.3 |  |  |  | 
9 | N#CC[Se]C(=O)c1cccc(F)c1 [N2, Se-(Cyanomethyl) 3-Fluorobenzoselenoate] | 2.96 µM | >6 * | 7.01 µM | >6 * | > 100 µM | 5.6 µM | 5.2 µM | 2.6 µM | 0.36 µM | >6 * |  |  |  | 
10 | N#CC[Se]C(=O)c1ccc(Br)cc1 [N3, Se-(Cyanomethyl) 4-Bromobenzoselenoate] | 2.1 µM | >6 * | 4.37 µM | >6 * | > 100 µM | 9.6 µM | 2.4 µM | 2.8 µM | 0.64 µM | >6 * |  |  |  | 
11 | N#CC[Se]C(=O)c1ccccc1C(F)(F)F [N4, Se-(Cyanomethyl) 2-(Trifluoromethyl)benzoselenoate] | 1.97 µM |  | 5.57 µM | >6 * | > 100 µM | 5.2 µM | 2.5 µM | 1.4 µM | 0.2 µM | >6 * |  |  |  | 
12 | N#CC[Se]C(=O)c1cc(C(F)(F)F)cc(C(F)(F)F)c1 [N7, Se-(Cyanomethyl) 3,5-Bis(trifluoromethyl)benzoselenoate] | 1.98 µM |  | 3.78 µM | >6 * | > 100 µM | 11.8 µM | 2.1 µM | 1.6 µM | 0.61 µM | >6 * |  |  |  | 
